Measurements from patent US20240358672A1, “APPLICATION OF GENISTEIN AND ITS PHOSPHATE ESTER DERIVATIVE AND PHARMACEUTICAL COMPOSITION COMPRISING THE SAME” (National Taiwan University, priority 2023, published 2024).

Experiments:
[1] = tested on: C57BL/6J mice; type: in vivo; settings: Δ^9-THC 1 mg/kg plus genistein 50 mg/kg or rimonabant 3 mg/kg
Description: FIG. 7A: Isometric tension recordings of isolated mice thoracic aortas were performed using a wire myograph. Vascular concentration-dependent relaxation was induced by acetylcholine (ACh) in pre-constricted mouse thoracic arteries. […] FIG. 7C: Luminex analysis of inflammatory cytokines in plasma of C57BL/6J mice treated with vehicle control, Δ^9-THC, or Δ^9-THC plus genistein. […] FIG. 7E: Effect of Δ^9-THC and genistein on NF-κB phosphorylation in mouse thoracic artery. Total cell lysates were prepared, and the expressions of phosphor-NF-κB were analyzed by ELISA (upper left). Superoxide dismutase (SOD) activity of serum from mouse (bottom left). The effect of Δ^9-THC and genistein on NF-κB phosphorylation in mouse thoracic artery tissues (n=5). Total cell lysates were prepared, and the expressions of NF-κB, phosphorylated NF-κB, and β-actin were analyzed by western blot analysis (right panel). FIG. 7F: The levels reduced glutathione (GSH), Oxidized glutathione (GSSG), Total glutathione (T-GSH) and GSH/GSSG in the serum samples of mice were detected. Plasma isolated from C57BL/6J mice (n=5) treated with vehicle control, Δ^9-THC, genistein, or their combination every day for 30 days was analyzed by the glutathione colorimetric assay kit (BioVision, K261).
Genistein also rescued the oxidative stress protective-related gene expression (FIG. 7D). In addition, NF-κB phosphorylation and SOD expression in mouse serum were also attenuated with genistein (FIG. 7E). Δ^9-THC administration decreased circulating levels of the antioxidant glutathione, which was ameliorated with genistein cotreatment (FIG. 7F).

[2] = target: CB1 receptor (Homo sapiens, UniProt P21554); assay: GTPase-Glo assay (in vitro GTPase assay); type: biochemical; settings: GTPase-Glo assay
CB1 receptor, sequence (P21554 whole entry): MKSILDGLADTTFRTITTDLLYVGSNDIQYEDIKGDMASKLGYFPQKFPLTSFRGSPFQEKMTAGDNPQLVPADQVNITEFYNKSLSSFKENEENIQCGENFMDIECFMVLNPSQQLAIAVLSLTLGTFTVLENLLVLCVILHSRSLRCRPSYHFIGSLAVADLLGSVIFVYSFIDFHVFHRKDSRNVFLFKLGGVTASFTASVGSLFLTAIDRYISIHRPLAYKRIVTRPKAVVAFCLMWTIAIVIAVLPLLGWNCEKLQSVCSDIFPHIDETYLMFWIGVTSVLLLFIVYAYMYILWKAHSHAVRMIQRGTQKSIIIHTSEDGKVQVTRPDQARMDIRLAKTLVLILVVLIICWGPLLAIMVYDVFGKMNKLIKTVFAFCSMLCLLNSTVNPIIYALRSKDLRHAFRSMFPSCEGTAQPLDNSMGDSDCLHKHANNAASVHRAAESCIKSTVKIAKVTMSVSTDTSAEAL

GTP turnover compared with Apo [2]	SMILES	Δ^9-THC-induced mRNA expressions of inflammation-related genes in mouse thoracic artery tissues [1]
	Cc1c(C(=O)NN2CCCCC2)nn(-c2ccc(Cl)cc2Cl)c1-c1ccc(Cl)cc1 [rimonabant]	ameliorated
decrease GTP turnover	C[C@H](NC(=O)C(C)(C)Oc1ccc(C(F)(F)F)cn1)[C@@H](Cc1ccc(Cl)cc1)c1cccc(C#N)c1 [taranabant]	
